Measurements: ChEMBL document CHEMBL1201862, “PubChem BioAssay data set” (2004)
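Each compound was tested at five concentrations against cells in 96-well plates for 48 hours. GI50 = concentration required for 50% inhibition of growth.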 Active and inactive are the calls of the source. Rule as the data show it: active = GI50 up to about 1.1 µM and inactive = higher.

Tests used:
Assay in all cases: inhibition of tumour cell growth, NCI panel, 48 h
SF-295 = tested on: SF-295
DMS-273 = tested on: DMS-273
MOLT-4 = tested on: MOLT-4
SN12C = tested on: SN12C
SNB-75 = tested on: SNB-75
HCT-116 = tested on: HCT-116
M19-MEL = tested on: M19-MEL
DLD-1 = tested on: DLD-1
HT-29 = tested on: HT-29
SK-MEL-28 = tested on: SK-MEL-28
LXFL 529 = tested on: LXFL 529
UACC-62 = tested on: UACC-62
SF-268 = tested on: SF-268
U-251 = tested on: U-251
HOP-92 = tested on: HOP-92
SR = tested on: SR
SW-620 = tested on: SW-620
SF-539 = tested on: SF-539
SNB-78 = tested on: SNB-78
HOP-62 = tested on: HOP-62
A498 = tested on: A498
HCC 2998 = tested on: HCC 2998
M14 = tested on: M14
RPMI-8226 = tested on: RPMI-8226
HCT-15 = tested on: HCT-15
NCI-H522 = tested on: NCI-H522
SNB-19 = tested on: SNB-19
A549 = tested on: A549
OVCAR-8 = tested on: OVCAR-8
NCI-H226 = tested on: NCI-H226
Malme-3M = tested on: Malme-3M
NCI-H23 = tested on: NCI-H23
K562 = tested on: K562
SK-OV-3 = tested on: SK-OV-3
HL-60 = tested on: HL-60
ACHN = tested on: ACHN
UACC-257 = tested on: UACC-257
CCRF-CEM = tested on: CCRF-CEM
IGROV-1 = tested on: IGROV-1
786-0 = tested on: 786-0
SK-MEL-5 = tested on: SK-MEL-5
UO-31 = tested on: UO-31
KM-20L2 = tested on: KM-20L2
HOP-18 = tested on: HOP-18
RXF 393 = tested on: RXF 393
OVCAR-4 = tested on: OVCAR-4
COLO 205 = tested on: COLO 205
XF498 = tested on: XF498
EKVX = tested on: EKVX
NCI/ADR-RES = tested on: NCI/ADR-RES
MDA-MB-231 = tested on: MDA-MB-231
LOX IMVI = tested on: LOX IMVI
KM12 = tested on: KM12
SK-MEL-2 = tested on: SK-MEL-2
DU-145 = tested on: DU-145
DMS-114 = tested on: DMS-114
T47D = tested on: T47D
OVCAR-5 = tested on: OVCAR-5
NCI-H460 = tested on: NCI-H460
CAKI-1 = tested on: CAKI-1
PC-3 = tested on: PC-3
MCF7 = tested on: MCF7
TK-10 = tested on: TK-10
Hs-578T = tested on: Hs-578T
BT-549 = tested on: BT-549
MDA-N = tested on: MDA-N
OVCAR-3 = tested on: OVCAR-3
MDA-MB-435 = tested on: MDA-MB-435

SMILES: O=C1C2ON3c4ccccc4C(=O)C3(c3ccccc3)C2C(=O)N1c1ccccc1 (stereo not given)
- GI50 (SF-295): > 100 µM (inactive)
- GI50 (DMS-273): > 100 µM (inactive)
- GI50 (MOLT-4): > 100 µM (inactive)
- GI50 (SN12C): > 100 µM (inactive)
- GI50 (SNB-75): > 100 µM (inactive)
- GI50 (HCT-116): > 100 µM (inactive)
- GI50 (M19-MEL): > 100 µM (inactive)
- GI50 (DLD-1): > 100 µM (inactive)
- GI50 (HT-29): > 100 µM (inactive)
- GI50 (SK-MEL-28): > 100 µM (inactive)
- GI50 (LXFL 529): > 100 µM (inactive)
- GI50 (UACC-62): > 100 µM (inactive)
- GI50 (SF-268): > 100 µM (inactive)
- GI50 (U-251): > 100 µM (inactive)
- GI50 (HOP-92): > 100 µM (inactive)
- GI50 (SR): > 100 µM (inactive)
- GI50 (SW-620): > 100 µM (inactive)
- GI50 (SF-539): > 100 µM (inactive)
- GI50 (SNB-78): > 100 µM (inactive)
- GI50 (HOP-62): > 100 µM (inactive)
- GI50 (A498): > 100 µM (inactive)
- GI50 (HCC 2998): > 100 µM (inactive)
- GI50 (M14): > 100 µM (inactive)
- GI50 (RPMI-8226): > 100 µM (inactive)
- GI50 (HCT-15): > 100 µM
- GI50 (NCI-H522): > 100 µM (inactive)
- GI50 (SNB-19): > 100 µM (inactive)
- GI50 (A549): > 100 µM (inactive)
- GI50 (OVCAR-8): > 100 µM (inactive)
- GI50 (NCI-H226): > 100 µM (inactive)
- GI50 (Malme-3M): > 100 µM (inactive)
- GI50 (NCI-H23): > 100 µM (inactive)
- GI50 (K562): > 100 µM (inactive)
- GI50 (SK-OV-3): > 100 µM (inactive)
- GI50 (HL-60): > 100 µM (inactive)
- GI50 (ACHN): > 100 µM (inactive)
- GI50 (UACC-257): > 100 µM (inactive)
- GI50 (CCRF-CEM): > 100 µM (inactive)
- GI50 (IGROV-1): > 100 µM (inactive)
- GI50 (786-0): > 100 µM (inactive)
- GI50 (SK-MEL-5): > 100 µM (inactive)
- GI50 (UO-31): > 100 µM (inactive)
- GI50 (KM-20L2): > 100 µM (inactive)
- GI50 (HOP-18): > 100 µM (inactive)
- GI50 (RXF 393): > 100 µM (inactive)
- GI50 (OVCAR-4): > 100 µM (inactive)
- GI50 (COLO 205): > 100 µM (inactive)
- GI50 (XF498): > 100 µM (inactive)
- GI50 (EKVX): > 100 µM (inactive)

SMILES: NC(CN(O)N=O)C(=O)O (stereo not given)
- GI50 (SF-295): 5.01 µM (inactive)
- GI50 (DMS-273): 0.817 µM (active)
- GI50 (MOLT-4): 20.1 µM (inactive)
- GI50 (M19-MEL): 14.1 µM (inactive)
- GI50 (DLD-1): 1.04 µM (active)
- GI50 (HT-29): 9.23 µM (inactive)
- GI50 (NCI/ADR-RES): 17.1 µM (inactive)
- GI50 (MDA-MB-231): 55.7 µM (inactive)
- GI50 (LOX IMVI): 0.267 µM (active)
- GI50 (KM12): 0.472 µM (active)
- GI50 (SF-539): 8.57 µM (inactive)
- GI50 (SNB-78): 21.8 µM (inactive)
- GI50 (SK-MEL-2): 95.9 µM (inactive)
- GI50 (A549): 0.202 µM (active)
- GI50 (DU-145): 135 µM (inactive)
- GI50 (OVCAR-8): 12.2 µM (inactive)
- GI50 (Malme-3M): 54.5 µM (inactive)
- GI50 (HL-60): 9.4 µM (inactive)
- GI50 (ACHN): 1.85 µM (inactive)
- GI50 (DMS-114): 0.309 µM (active)
- GI50 (KM-20L2): 19 µM (inactive)
- GI50 (T47D): 157 µM (inactive)
- GI50 (HOP-18): 331 µM (inactive)
- GI50 (XF498): 5.71 µM (inactive)
- GI50 (OVCAR-5): 5.22 µM (inactive)

SMILES: CO[C@@]12[C@H](COC(N)=O)C3=C(C(=O)C(C)=C(N)C3=O)N1C[C@H]1[C@@H]2N1C (stereo not given in full) [PORFIROMYCIN]
- GI50 (SF-295): 0.398 µM (active)
- GI50 (DMS-273): 0.401 µM (active)
- GI50 (MOLT-4): 0.543 µM (active)
- GI50 (SN12C): 0.782 µM (active)
- GI50 (SNB-75): 1.1 µM (active)
- GI50 (HCT-116): 2.22 µM (inactive)
- GI50 (M19-MEL): 2.74 µM (inactive)
- GI50 (DLD-1): 9.62 µM (inactive)
- GI50 (HT-29): 1.42 µM (inactive)
- GI50 (SK-MEL-28): 12.3 µM (inactive)
- GI50 (UACC-62): 0.466 µM (active)
- GI50 (NCI-H460): 0.128 µM (active)
- GI50 (NCI/ADR-RES): 29.4 µM (inactive)
- GI50 (MDA-MB-231): 9.73 µM (inactive)
- GI50 (SF-268): 3.46 µM (inactive)
- GI50 (LOX IMVI): 0.794 µM (active)
- GI50 (U-251): 1.19 µM (inactive)
- GI50 (KM12): 6.97 µM (inactive)
- GI50 (HOP-92): 5.43 µM (inactive)
- GI50 (SR): 0.409 µM (active)
- GI50 (SW-620): 1.87 µM (inactive)
- GI50 (SF-539): 3.56 µM (inactive)
- GI50 (SNB-78): 9.68 µM (inactive)
- GI50 (HOP-62): 0.291 µM (active)
- GI50 (A498): 6.31 µM (inactive)
- GI50 (SK-MEL-2): 13.5 µM (inactive)
- GI50 (CAKI-1): 0.948 µM (active)
- GI50 (PC-3): 12.6 µM (inactive)
- GI50 (HCC 2998): 1.95 µM (inactive)
- GI50 (M14): 0.65 µM (active)
- GI50 (RPMI-8226): 8.41 µM (inactive)
- GI50 (MCF7): 0.714 µM (active)
- GI50 (HCT-15): 2.57 µM
- GI50 (NCI-H522): 4.59 µM (inactive)
- GI50 (SNB-19): 2.35 µM (inactive)
- GI50 (A549): 0.489 µM (active)
- GI50 (DU-145): 0.282 µM (active)
- GI50 (OVCAR-8): 3.95 µM (inactive)
- GI50 (NCI-H226): 8.69 µM (inactive)
- GI50 (TK-10): 16.3 µM (inactive)
- GI50 (Malme-3M): 4.1 µM (inactive)
- GI50 (NCI-H23): 0.506 µM (active)
- GI50 (Hs-578T): 16.6 µM (inactive)
- GI50 (K562): 7.5 µM (inactive)
- GI50 (SK-OV-3): 4.62 µM (inactive)
- GI50 (HL-60): 0.34 µM (active)
- GI50 (BT-549): 12.2 µM (inactive)
- GI50 (ACHN): 0.38 µM (active)
- GI50 (UACC-257): 8.28 µM (inactive)
- GI50 (MDA-N): 12.5 µM (inactive)
- GI50 (CCRF-CEM): 0.993 µM (active)
- GI50 (IGROV-1): 5.62 µM (inactive)
- GI50 (786-0): 8.57 µM (inactive)
- GI50 (SK-MEL-5): 1.8 µM (inactive)
- GI50 (UO-31): 13.9 µM (inactive)
- GI50 (OVCAR-3): 6.76 µM (inactive)
- GI50 (KM-20L2): 7.98 µM (inactive)
- GI50 (T47D): 9.2 µM (inactive)
- GI50 (MDA-MB-435): 12.3 µM (inactive)
- GI50 (HOP-18): 4.75 µM (inactive)
- GI50 (RXF 393): 6.31 µM (inactive)
- GI50 (OVCAR-4): 9.68 µM (inactive)
- GI50 (COLO 205): 2.22 µM (inactive)
- GI50 (XF498): 3.61 µM (inactive)
- GI50 (OVCAR-5): 10.2 µM (inactive)
- GI50 (EKVX): 12.3 µM (inactive)
